In patent US10329352B2, “Pyrrolobenzodiazepines and targeted conjugates” (priority 2011, dated 2019):

How the values were obtained:
Experiment in all cases: Free drug in vitro cytotoxicity (resazurin)
Type in all cases: cell-based
[1] = tested on: 786-O
Protocol: (§1) Cells as detailed below were collected and plated in 96 well black-sided plates at a density of 10,000 cells/well in 150 μL of medium. […] Resazurin (0.25 mM, 50 μL, Sigma, St. Louis, Mo.) in medium was added and incubation was continued for 4 hours. The plates were read on a Fusion HT microplate reader (Packard, Meriden, Conn.) using an excitation wavelength of 525 nm and an emission wavelength of 590 nm. Data from all assays were reduced using GraphPad Prism Version 4 for Windows (GraphPad Software, San Diego, Calif.). The IC50 concentrations compared to untreated control cells were determined using a 4 parameter curve fits.

[2] = tested on: Caki-1
Protocol: as §1

[3] = tested on: HEL9217
Protocol: as §1

[4] = tested on: HL60
Protocol: as §1

Structure (SMILES)	IC50 ([1]; Homo sapiens, 786-0, following 48 hours treatment) [nM]	IC50 ([2]; Homo sapiens, CAKI-1, following 48 hours treatment) [nM]	IC50 ([3]; Homo sapiens, HEL 92.1.7, following 48 hours treatment) [nM]	IC50 ([4]; Homo sapiens, HL-60, following 48 hours treatment) [nM]	IC50 ([1]; following 48 hours treatment) [nM]	IC50 ([2]; following 48 hours treatment) [nM]	IC50 ([3]; following 48 hours treatment) [nM]	IC50 ([4]; following 48 hours treatment) [nM]
COC(=O)c1ccc(C2=CN3C(=O)c4cc(OC)c(OCCCCCOc5cc6c(cc5OC)C(=O)N5C=C(c7ccc(N)cc7)C[C@H]5C=N6)cc4N=C[C@@H]3C2)cc1 [compound 4, (S)-2-(4-aminophenyl)-7-methoxy-8-(5-((S)-7-methoxy-2-(4-methyloxycarbonylphenyl)-5-oxo-5,11a-dihydro-1H-pyrrolo[2,1-c][1,4]benzodiazepin-8-yloxy)pentyloxy)-1H-pyrrolo[2,1-c][1,4]benzodiazepine-5(11aH)-one]	0.05	0.02	0.008	0.008				
COc1cc2c(cc1OCCCOc1cc3c(cc1OC)C(=O)N1C=C(c4ccc(O)cc4)C[C@H]1C=N3)N=C[C@@H]1CC(c3ccc(N)cc3)=CN1C2=O [compound 14]					0.2	0.4	0.05	0.03
